Source: patent publication US7812026B2, “Imidazole derivatives having a positive allosteric GABAB receptor modulator effect and methods of use” (AstraZeneca AB, priority 2005, dated 2010)

Molecular target: T1, GABAB receptor (Homo sapiens, UniProt O75899+Q9UBS5)
T1 construct: expressed in transfected cells; host or cells: CHO cells (membranes)
Assay: [35S]-GTPγS binding assay, potency of PAM
Format: biochemical
Conditions: potency of the positive allosteric modulator; log EC50 for GABA plotted against log concentration of modulator
Procedure: [^35S]-GTPγS binding assays were performed at 30° C. for 45 min in membrane buffer (100 mM NaCl, […], 1 mM EDTA, 50 mM HEPES, pH 7.4) containing 0.025 μg/μl of membrane protein (prepared from the cell lines described above) with 0.01% bovine serum albumin (fatty acid free), 10 μM GDP, 100 μM DTT and 0.53 nM [^35S]-GTPγS (Amersham-Pharmacia Biotech) in a final volume of 200 μl. Nonspecific binding was determined in the presence of 20 μM GTPγS. The reaction was started by the addition of GABA at concentration between 1 mM and 0.1 nM in the presence or absence of the required concentration of PAM. The reaction was terminated by addition of ice-cold wash buffer (50 mM Tris-HCl, 5 mM MgCl2, 50 mM NaCl, pH 7.4) followed by rapid filtration under vacuum through Printed Filtermat A glass fiber filters (Wallac) (0.05% PEI treated) using a Micro 96 Harvester (Skatron Instruments). The filters were dried for 30 min at 50° C., then a paraffin scintillant pad was melted onto the filters and the bound radioactivity was determined using a 1450 Microbeta Trilux (Wallac) scintillation counter.
GABA dose-response curves in the presence and absence of test compounds were constructed using the 4-parameter logistic equation, y=ymax+((ymin−ymax)/1+(x/C)^D), where C=EC50 and D=slope factor.
The potency of PAM in GTPγS assays was determined by plotting the log EC50 for GABA against the log concentration of the positive allosteric modulator in the presence of which the measurement was performed.

T1 sequence (Q9UBS5 15-961 limits assumed): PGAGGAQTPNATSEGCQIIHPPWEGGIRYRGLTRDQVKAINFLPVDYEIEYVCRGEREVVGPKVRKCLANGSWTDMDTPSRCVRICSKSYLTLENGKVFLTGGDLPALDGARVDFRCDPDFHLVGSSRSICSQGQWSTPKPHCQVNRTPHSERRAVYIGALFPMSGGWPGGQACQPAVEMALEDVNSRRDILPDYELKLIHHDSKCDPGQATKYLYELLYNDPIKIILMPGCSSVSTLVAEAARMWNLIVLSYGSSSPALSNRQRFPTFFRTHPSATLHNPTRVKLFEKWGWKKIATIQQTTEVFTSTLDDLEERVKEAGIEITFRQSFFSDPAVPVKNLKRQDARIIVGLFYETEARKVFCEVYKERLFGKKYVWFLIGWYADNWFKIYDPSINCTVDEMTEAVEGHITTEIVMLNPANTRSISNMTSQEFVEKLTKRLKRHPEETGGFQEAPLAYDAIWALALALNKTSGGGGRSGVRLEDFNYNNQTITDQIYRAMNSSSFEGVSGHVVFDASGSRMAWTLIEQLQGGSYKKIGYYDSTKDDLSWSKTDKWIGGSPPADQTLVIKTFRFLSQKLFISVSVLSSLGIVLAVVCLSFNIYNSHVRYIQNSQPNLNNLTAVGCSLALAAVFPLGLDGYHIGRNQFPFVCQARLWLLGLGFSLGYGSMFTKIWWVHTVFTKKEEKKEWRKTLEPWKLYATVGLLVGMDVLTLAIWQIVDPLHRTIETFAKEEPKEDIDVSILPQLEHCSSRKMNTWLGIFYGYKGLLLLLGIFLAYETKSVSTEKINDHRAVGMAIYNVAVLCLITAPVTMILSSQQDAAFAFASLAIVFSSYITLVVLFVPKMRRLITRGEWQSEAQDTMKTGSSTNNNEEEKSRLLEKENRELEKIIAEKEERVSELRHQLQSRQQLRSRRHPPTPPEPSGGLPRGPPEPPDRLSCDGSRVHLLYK
T1 sequence (O75899 42-941): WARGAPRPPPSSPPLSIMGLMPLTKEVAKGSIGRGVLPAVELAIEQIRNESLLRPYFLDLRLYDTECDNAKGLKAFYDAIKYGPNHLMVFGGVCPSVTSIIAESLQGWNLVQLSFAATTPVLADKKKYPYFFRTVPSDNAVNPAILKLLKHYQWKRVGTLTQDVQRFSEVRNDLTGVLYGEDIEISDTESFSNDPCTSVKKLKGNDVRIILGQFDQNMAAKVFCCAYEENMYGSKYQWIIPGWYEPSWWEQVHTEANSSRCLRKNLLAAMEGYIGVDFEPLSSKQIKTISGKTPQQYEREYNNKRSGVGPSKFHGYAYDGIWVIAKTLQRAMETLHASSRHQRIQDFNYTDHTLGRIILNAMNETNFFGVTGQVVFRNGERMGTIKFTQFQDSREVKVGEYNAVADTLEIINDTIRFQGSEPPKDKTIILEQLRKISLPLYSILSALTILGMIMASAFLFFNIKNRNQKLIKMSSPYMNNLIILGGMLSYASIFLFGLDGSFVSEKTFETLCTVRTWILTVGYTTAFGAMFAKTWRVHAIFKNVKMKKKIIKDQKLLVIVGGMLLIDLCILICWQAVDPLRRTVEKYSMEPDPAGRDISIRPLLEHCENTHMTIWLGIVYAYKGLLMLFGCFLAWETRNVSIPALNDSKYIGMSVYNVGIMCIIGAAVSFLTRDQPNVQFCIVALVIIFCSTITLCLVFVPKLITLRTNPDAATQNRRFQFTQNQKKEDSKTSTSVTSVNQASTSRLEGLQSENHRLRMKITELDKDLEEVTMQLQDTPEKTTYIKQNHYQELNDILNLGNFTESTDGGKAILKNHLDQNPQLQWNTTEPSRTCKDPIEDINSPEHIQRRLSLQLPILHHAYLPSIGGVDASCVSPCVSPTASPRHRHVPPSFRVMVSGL

Row | EC50 [nM] | Compound
1 | 2470 | CN(C)c1nc(NC(=O)COCc2ccccc2)c(C(=O)OC(C)(C)C)n1-c1ccccc1 [Example 9, tert-butyl 4-{[(benzyloxy)acetyl]amino}-2-(dimethylamino)-1-phenyl-1H-imidazole-5-carboxylate]
2 | 2530 | CCCc1c(C(=O)Nc2nc(N(C)C)n(-c3ccccc3)c2C(=O)OC(C)(C)C)cnn1-c1ccccc1 [Example 44, tert-butyl 2-(dimethylamino)-1-phenyl-4-{[(1-phenyl-5-propyl-1H-pyrazol-4-yl)carbonyl]amino}-1H-imidazole-5-carboxylate]
3 | 5130 | CN(C)c1nc(NC(=O)C2Cc3ccccc3O2)c(C(=O)OC(C)(C)C)n1-c1ccccc1 (stereo not drawn) [Example 13, tert-butyl 4-[(2,3-dihydro-1-benzofuran-2-ylcarbonyl)amino]-2-(dimethylamino)-1-phenyl-1H-imidazole-5-carboxylate]
